Laboratory results: patent US12662451B2, “Chemical compounds and uses thereof” (GLAXOSMITHKLINE INTELLECTUAL PROPERTY (NO.4) LIMITED, priority 2023, dated 2026)
Where two headings read alike, the source gives them in different places.

Experiments:
[1] = molecular target: T1, recombinant full-length WRN protein (1-1432) (Homo sapiens, UniProt Q14191); assay: WRN unwinding activity, fluorogenic 384-well assay (Example A); format: biochemical; settings: WRN unwinding activity, Table 2; for IC50: 4 hr, read-out: 4 hr UNW pIC50 (converted)
T1 construct: recombinant full-length WRN protein (1-1432)
T1 sequence (Q14191 whole entry): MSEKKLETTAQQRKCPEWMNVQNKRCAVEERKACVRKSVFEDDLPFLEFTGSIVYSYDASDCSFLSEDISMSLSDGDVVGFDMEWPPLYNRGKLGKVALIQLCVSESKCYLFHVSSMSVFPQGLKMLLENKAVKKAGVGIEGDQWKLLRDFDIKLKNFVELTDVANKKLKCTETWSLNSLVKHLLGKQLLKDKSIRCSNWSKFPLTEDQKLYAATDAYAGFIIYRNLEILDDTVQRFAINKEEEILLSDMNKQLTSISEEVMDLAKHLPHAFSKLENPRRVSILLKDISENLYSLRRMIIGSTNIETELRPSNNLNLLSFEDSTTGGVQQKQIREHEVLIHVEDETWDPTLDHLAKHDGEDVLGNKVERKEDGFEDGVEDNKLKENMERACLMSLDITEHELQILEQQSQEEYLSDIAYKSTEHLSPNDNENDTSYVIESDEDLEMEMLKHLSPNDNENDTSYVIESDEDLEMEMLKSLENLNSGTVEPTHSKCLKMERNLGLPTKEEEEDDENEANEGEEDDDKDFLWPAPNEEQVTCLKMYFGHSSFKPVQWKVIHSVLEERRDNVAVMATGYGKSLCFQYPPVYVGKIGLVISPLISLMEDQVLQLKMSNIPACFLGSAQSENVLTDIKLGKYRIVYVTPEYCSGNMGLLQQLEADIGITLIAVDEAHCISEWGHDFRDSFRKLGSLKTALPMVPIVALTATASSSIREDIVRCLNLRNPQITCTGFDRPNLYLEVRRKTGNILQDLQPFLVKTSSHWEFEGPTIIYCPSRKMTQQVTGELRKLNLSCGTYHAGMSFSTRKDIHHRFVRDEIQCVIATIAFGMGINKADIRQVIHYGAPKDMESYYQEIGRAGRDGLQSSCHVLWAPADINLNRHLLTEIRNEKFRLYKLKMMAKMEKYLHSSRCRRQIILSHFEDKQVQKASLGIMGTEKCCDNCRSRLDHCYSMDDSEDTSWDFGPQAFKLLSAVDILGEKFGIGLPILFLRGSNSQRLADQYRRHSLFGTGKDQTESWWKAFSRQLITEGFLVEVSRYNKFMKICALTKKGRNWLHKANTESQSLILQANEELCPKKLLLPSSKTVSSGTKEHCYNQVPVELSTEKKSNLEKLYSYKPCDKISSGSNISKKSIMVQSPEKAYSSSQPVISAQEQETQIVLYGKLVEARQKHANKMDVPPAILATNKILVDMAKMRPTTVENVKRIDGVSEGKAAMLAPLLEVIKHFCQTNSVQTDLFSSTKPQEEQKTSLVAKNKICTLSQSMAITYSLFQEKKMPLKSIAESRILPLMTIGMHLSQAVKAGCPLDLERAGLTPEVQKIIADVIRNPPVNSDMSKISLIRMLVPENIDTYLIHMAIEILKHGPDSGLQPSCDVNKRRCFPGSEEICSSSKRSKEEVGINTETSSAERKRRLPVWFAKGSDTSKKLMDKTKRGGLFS
How it was run: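 Read-out is end-point unwinding of a fluorophore/quencher duplex (ex 525, em 598 nm) after 60 min with 200 μM ATP and 12 nM DNA (2× stocks), EDTA stop. Compound first sat 4 h with 200 pM WRN (2× stock) in pH 8.0 Tris buffer; four-parameter fit gives pIC50.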

[2] = Cell culture media unbound percentage and stability by rapid equilibrium dialysis (Example C); format: in vitro ADME; settings: bovine, cell assay medium (RPMI-1640 with 10% fetal bovine serum), pH 7.4, rapid equilibrium dialysis, 4 hours at 37° C., read-out: Cell Culture Media Binding (% unbound)
Method: (§1) It was observed that the compounds of the present disclosure are bound to cell assay media to various degrees, which would affect the cellular potency analysis in Example B. To measure free drug potency, concentrations used in the cell assays were corrected with the measured free fraction determined in the cell assay media. Compounds were incubated in a rapid equilibrium dialysis (RED) at a nominal concentration of 1 μM, using a dialysis buffer of phosphate-buffered saline (PBS, 100 mM sodium phosphate+150 mM sodium chloride, pH 7.4). The test compound was spiked into the medium. Aliquots were added to the donor wells of a RED plate in triplicate, and blank PBS was added to each receiver well, at volumes recommended by the manufacturer. Plates were incubated with shaking at 200 rpm for 4 hours at 37° C. The resultant samples were analysed by LC-MS/MS using a specific and sensitive method. Results were reported as analyte:internal standard peak area ratios (PARs), and the percent unbound was calculated with the following equation:
[formula] where D=the matrix dilution factor (D=1 for media); Apparent Fu=Crec/Cdon; Crec=PAR in receiver samples; Cdon=PAR in donor samples. Percent stability was calculated by:
(§2) [formula] where Cfinal=PAR in the T=240 minute sample; Cinitial=PAR in the T=0 minute sample. Cell culture media unbound percentage and calculated free drug potency of selected compounds along with their measured potency from Example B are shown in Table 3.

[3] = system: SW48 human colorectal cancer cells; assay: Calculated free drug potency in SW48 cell assay, corrected with media free fraction (Example C); format: cell-based; settings: for CC50: Homo sapiens, SW48, SW48 pCC50 corrected with measured free fraction in cell assay media; for Free Drug SW48 pCC50: SW48 pCC50 corrected with measured free fraction in cell assay media
Method: as §1, §2

[4] = system: SW48 human colorectal cancer cells (MSI-H cancer cells); assay: SW48 cell viability, CellTiter-Glo, 120 hours (Example B); settings: for CC50: Homo sapiens
[5] = SW48, 120 h, read-out: SW48 pCC50, SW48 cell viability, 120 hours incubation (converted), Table 2
[6] = SW48, read-out: SW48 pCC50, measured potency from Example B, as repeated in Table 3 (converted)
[7] = SW48 cell viability, 120 hours incubation, Table 2
[8] = measured potency from Example B, as repeated in Table 3

Row | SMILES | IC50 [1] [µM] | fraction unbound at 4 h, 1 µM [2] | CC50 [3] [µM] | CC50 [4, 5] [µM] | CC50 [4, 6] [µM] | Free Drug SW48 pCC50 [3] | SW48 pCC50 [4, 7] | SW48 pCC50 [4, 8] | 4 hr UNW pIC50 [1]
1 | Cc1nc2cc(S(=O)(=O)N(C)c3ccc([C@H]4C[C@@H](OC[C@@H]5COCCO5)C[C@@H](C(=O)Nc5ccc(C(F)(F)F)cc5F)[C@@H]4C(=O)O)cc3)ccc2n1C (stereo in doubt) [Example 329, (1R*,2R*,4R*,6S*)-4-(((S)-1,4-dioxan-2-yl)methoxy)-2-((2-fluoro-4-(trifluoromethyl)phenyl)carbamoyl)-6-(4-((N,1,2-trimethyl-1H-benzo[d]imidazole)-5-sulfonamido)phenyl)cyclohexane-1-carboxylic acid] | 0.00158 | 0.205 | 0.0129 | 0.0631 | 0.0631 | – | – | – | –
2 | CCO[C@@H]1C[C@H](c2ccc(N(C)S(=O)(=O)c3ccc4c(c3)nc3n4CCCC3)cc2)[C@@H](C(=O)O)[C@H](C(=O)Nc2ccc(C(F)(F)F)cc2F)C1 [Example 279, (1R,2R,4R,6S)-4-ethoxy-2-((2-fluoro-4-(trifluoromethyl)phenyl)carbamoyl)-6-(4-((N-methyl-1,2,3,4-tetrahydrobenzo[4,5]imidazo[1,2-a]pyridine)-7-sulfonamido)phenyl)cyclohexane-1-carboxylic acid] | 0.002 | 0.079 | 0.01 | 0.126 | 0.126 | – | – | – | –
3 | Cc1nc2cc(S(=O)(=O)N(C)c3ccc([C@H]4CCC[C@@H](C(=O)Nc5ccc(C(F)(F)F)cc5F)[C@@H]4C(=O)O)cc3)ccc2n1CCN [Example 277, (1R,2S,6R)-2-(4-((1-(2-aminoethyl)-N,2-dimethyl-1H-benzo[d]imidazole)-5-sulfonamido)phenyl)-6-((2-fluoro-4-(trifluoromethyl)phenyl)carbamoyl)cyclohexane-1-carboxylic acid] | 0.000631 | 0.197 | 0.309 | 1.58 | 1.58 | – | – | – | –
4 | CN[C@H]1C[C@H](c2ccc(N(C)S(=O)(=O)c3ccc4c(c3)nc(C)n4C)cc2)[C@@H](C(=O)O)[C@H](C(=O)Nc2ccc(C(F)(F)F)cc2F)C1 (single isomer, unassigned) [Example 254] | 0.0251 | 0.234 | 2.34 | 10 | – | – | – | – | –
5 | Cc1nc2cc(S(=O)(=O)N(C)c3ccc([C@H]4C[C@@H](N)C[C@@H](C(=O)Nc5ccc(C(F)(F)F)cc5F)[C@@H]4C(=O)O)cc3)ccc2n1C (stereo in doubt) [Example 301, rel-(1R,2R,4R,6S)-4-amino-2-((2-fluoro-4-(trifluoromethyl)phenyl)carbamoyl)-6-(4-((N,1,2-trimethyl-1H-benzo[d]imidazole)-5-sulfonamido)phenyl)cyclohexane-1-carboxylic acid] | 0.00158 | 0.406 | 1.62 | 3.98 | 3.98 | – | – | – | –
6 | Cc1nc2cc(S(=O)(=O)N(C)c3ccc([C@H]4C[C@@H](C#N)C[C@@H](C(=O)Nc5ccc(C(F)(F)F)cc5F)[C@@H]4C(=O)O)cc3)ccc2n1C (single isomer, unassigned) [Example 287] | 0.00158 | 0.156 | 0.0617 | 0.398 | 0.398 | – | – | – | –
7 | CN(c1ccc([C@H]2CCC[C@@H](C(=O)Nc3ccc(C(F)(F)F)cc3F)[C@@H]2C(=O)O)cc1)S(=O)(=O)c1ccc2ccn(C)c2c1 [Example 110, (1R,2S,6R)-2-(4-((N,1-dimethyl-1H-indole)-6-sulfonamido)phenyl)-6-((2-fluoro-4-(trifluoromethyl)phenyl)carbamoyl)cyclohexane-1-carboxylic acid] | 0.00398 | 0.0085 | 0.0107 | 1.26 | 1.26 | – | – | – | –
8 | Cc1nc2cc(S(=O)(=O)N(C)c3ccc([C@H]4CCC[C@@H](C(=O)Nc5ccc(C(C)C)cc5)[C@@H]4C(=O)O)cc3)ccc2n1C [Example 396, (1R,2R,6S)-2-((4-isopropylphenyl)carbamoyl)-6-(4-((N,1,2-trimethyl-1H-benzo[d]imidazole)-5-sulfonamido)phenyl)cyclohexane-1-carboxylic acid] | 0.00158 | 0.0717 | 0.0457 | 0.631 | 0.631 | – | – | – | –
9 | CN(c1ccc([C@H]2CCC[C@@H](C(=O)Nc3ccc(C(F)(F)F)cc3F)[C@@H]2C(=O)O)cc1)S(=O)(=O)c1cccc([C@H]2CCCNC2)c1 [Example 263] | 0.00158 | 0.278 | 0.055 | 0.2 | 0.2 | – | – | – | –
10 | Cc1nc2cc(S(=O)(=O)N(C)c3ccc([C@H]4C[C@H](N5CCC(F)(F)CC5)C[C@@H](C(=O)Nc5ccc(C(F)(F)F)cc5F)[C@@H]4C(=O)O)cc3)ccc2n1C (relative stereo) [Example 342, rel-(1R,2R,4S,6S)-4-(4,4-difluoropiperidin-1-yl)-2-((2-fluoro-4-(trifluoromethyl)phenyl)carbamoyl)-6-(4-((N,1,2-trimethyl-1H-benzo[d]imidazole)-5-sulfonamido)phenyl)cyclohexane-1-carboxylic acid] | – | 0.0623 | 0.389 | 6.31 | 6.31 | – | – | – | –
11 | Cc1nc2cc(S(=O)(=O)N(C)c3ccc([C@H]4C[C@@H]5OCC[C@@H]5[C@@H](C(=O)Nc5ccc(C(F)(F)F)cc5F)[C@@H]4C(=O)O)cc3)ccc2n1C (single isomer, unassigned) [Example 158] | 0.0316 | – | – | – | – | 6.03 | 5.4 | 5.4 | –
12 | Cc1nc2cc(S(=O)(=O)N(C)c3ccc([C@H]4C[C@@H](N5CCOCC5)C[C@@H](C(=O)Nc5ccc(C(F)(F)F)cc5F)[C@@H]4C(=O)O)cc3)ccc2n1C (single isomer, unassigned) [Example 340] | 0.00794 | – | – | – | – | 5.99 | 5.1 | 5.1 | –
13 | CN(c1ccc([C@H]2CCC[C@@H](C(=O)Nc3ccc(C(F)(F)F)cc3F)[C@@H]2C(=O)O)cc1)S(=O)(=O)c1cc(I)c2occc2c1 [Example 117, (1R,2R,6S)-2-((2-fluoro-4-(trifluoromethyl)phenyl)carbamoyl)-6-(4-((7-iodo-N-methylbenzofuran)-5-sulfonamido)phenyl)cyclohexane-1-carboxylic acid] | 0.0631 | – | – | 3.98 | – | 8.36 | – | 5.4 | –
14 | Cc1nc2cc(S(=O)(=O)N(C)c3ccc([C@H]4C[C@@H](O[C@H]5CCOC5)C[C@@H](C(=O)Nc5ccc(C(F)(F)F)cc5F)[C@@H]4C(=O)O)cc3)ccc2n1C (stereo in doubt) [Example 324, (1R*,2R*,4R*,6S*)-2-((2-fluoro-4-(trifluoromethyl)phenyl)carbamoyl)-4-(((S)-tetrahydrofuran-3-yl)oxy)-6-(4-((N,1,2-trimethyl-1H-benzo[d]imidazole)-5-sulfonamido)phenyl)cyclohexane-1-carboxylic acid] | – | – | – | – | – | 5.60 | 5.1 | 5.1 | 7.2
